Structures can show the parent of a compound that is named as a salt. Where two headings read alike, the source gives them in different places.
Tested on: murine neural precursor cells (neurosphere cultures)
Assay: HTS of LOPAC library against secondary neurosphere cultures, MTT proliferation assay at 3 μM, day 7 (z score, P value)
Format: cell-based, mouse
[1] = LOPAC primary screen, neurosphere MTT proliferation, 3 μM, day 7
[2] = yes/no: significantly inhibited neurosphere proliferation (P<0.01) in primary screen
[3] = LOPAC library screen at 3 μM, MTT, secondary neurosphere cultures, screened in singlets
[4] = LOPAC screen, neurosphere MTT proliferation, 3 μM, day 7
[5] = LOPAC library screen at 3 μM, secondary neurosphere cultures, MTT
[6] = LOPAC library screen, 3 μM, MTT, secondary neurosphere cultures, day 7
[7] = primary LOPAC screen, 3 μM, MTT, neurosphere proliferation
[8] = yes/no: significantly inhibited neurosphere proliferation in the primary screen
[9] = LOPAC library screen, 3 μM, MTT, neurosphere cultures
[10] = yes/no: significantly inhibited neurosphere proliferation (P<0.01) in the primary screen
[11] = yes/no: significantly inhibited neurosphere proliferation in primary screen
[12] = yes = significantly inhibited neurosphere proliferation (P<0.01) in the primary screen

For `CC(=O)[C@@]1(O)CC[C@H]2[C@@H]3CCC4=CC(=O)CC[C@]4(C)[C@H]3CC[C@@]21C` [17alpha-hydroxyprogesterone], which “Z Score” value is on record?
The value was −0.5783.

And the Z score [1]?
The Z score was −0.578.

What about the Activity [2] of the same compound?
The Activity was “no”.

For `Nc1nccc2c1ncn2[C@@H]1O[C@H](CO)[C@@H](O)[C@H]1O` [3-deazaadenosine], which “Z Score” value [3] is on record?
Its value is 1.77.

What about the Z score [4] of the same compound?
The Z score was 1.770.

And the Activity [2]?
Its Activity is “no”.

Which “Z Score” value [5] does the source give for `CCn1ccnc1CC1COc2ccccc2O1` (centres unmarked) [Imiloxan hydrochloride] here?
The value was −0.9879.

What about the Z score [1] of the same compound?
The Z score was −0.988.

And the Activity [2]?
The Activity was “no”.

`O=c1[nH]c2ccccc2n1CCCN1CCC(n2c(=O)[nH]c3cc(Cl)ccc32)CC1` [Domperidone] was tested. Which Activity did it give?
Its Activity is “no”.

And the “Z Score” value [6]?
Its value is −1.525.

What about the Z score [1] of the same compound?
The Z score was −1.525.

`CC(C[N+](C)(C)C)OC(N)=O` (centres unmarked) [Bethanechol chloride] was tested. Which “Z Score” value [5] did it give?
The value was −0.6493.

What about the Z score [4] of the same compound?
Its Z score is −0.649.

And the Activity [2]?
The Activity was “no”.

For `Nc1nc(OCc2ccccc2)c2nc[nH]c2n1` [O6-benzylguanine], which “Z Score” value [5] is on record?
The value was −1.177.

What about the Z score [7] of the same compound?
Its Z score is −1.177.

And the Activity [8]?
The Activity was “no”.

How did the “Z Score” value turn out when `O=C(O)[C@H]1CCCN[C@H]1C(=O)O` was run?
The value was 0.1553.

For `C[N+](C)(C)CCOP(=O)([O-])OP(=O)([O-])OC[C@H]1O[C@@H](n2ccc(N)nc2=O)[C@H](O)[C@@H]1O.[Na+]` [Citicoline sodium], which “Z Score” value [5] is on record?
Its value is −0.1331.

And the Z score [4]?
The Z score was −0.133.

And the Activity [2]?
The Activity was “no”.

`CC[N+](CC)(CC)CC(=O)Nc1c(C)cccc1C.[Br-]` was tested. Which “Z Score” value [9] did it give?
The value was 0.2653.

What about the Z score [1] of the same compound?
Its Z score is 0.265.

What about the Activity [2] of the same compound?
Its Activity is “no”.

Which results are given for `N#C/C(=C\c1ccc(O)c(O)c1)C(=O)NCc1ccccc1` [Tyrphostin AG 490]?
Z Score [3]: 1.802; Z score [7]: 1.802; Activity [8]: no

Which “Z Score” value [6] does the source give for `COc1ccc2c(c[n+](C)c3c4cc5c(cc4ccc23)OCO5)c1OC` [Chelerythrine (36), Chelerythrine, reference compound] here?
Its value is −10.67.

And the Z score [1]?
The Z score was −10.671.

What about the Activity [10] of the same compound?
Its Activity is “yes”.

How did the “Z Score” value turn out when `Cl.Cl.Cl.Ic1ccc(N2CCN(Cc3c[nH]c4ncccc34)CC2)cc1` [L-750,667 trihydrochloride] was run?
The value was −1.184.

And the Z score [1]?
Its Z score is −1.184.

What about the Activity [10] of the same compound?
Its Activity is “no”.

Which results are given for `Cc1ccc(N(CC2=NCCN2)c2cccc(O)c2)cc1` [Phentolamine mesylate]?
Z Score (168 h, 3 µM): −0.3191; Z score (168 h, 3 µM): −0.319; Activity [11]: no

Which “Z Score” value [5] does the source give for `COc1ccc2[nH]cc(CCNC(C)=O)c2c1` [Melatonin] here?
Its value is −0.2407.

What about the Z score [1] of the same compound?
The Z score was −0.241.

And the Activity [12]?
Its Activity is “no”.

With `N.S=C(S)N1CCCC1` [Ammonium pyrrolidinedithiocarbamate] as the compound, how does the Activity read?
The Activity was “no”.

And the “Z Score” value [5]?
The value was −0.4168.

And the Z score [1]?
Its Z score is −0.417.

For `CC[C@@H]1/C=C/C=C/C[C@H](C)[C@H](O)[C@](C)(O)C(=O)[C@H](C)[C@@H](O)[C@H](C)C(=O)[C@H](C)[C@@H](O)[C@H](C)/C=C/C(=O)O[C@H]2[C@@H](C)[C@@H](CC1)O[C@@]1(CC[C@@H](C)[C@@H](C[C@H](C)O)O1)[C@@H]2C` [Oligomycin A], which “Z Score” value [6] is on record?
The value was −9.731.

What about the Z score [1] of the same compound?
Its Z score is −9.731.

What about the Activity [12] of the same compound?
The Activity was “yes”.

With `CN1CCc2cccc(Cl)c2CC1` [SKF 86466] as the compound, how does the “Z Score” value read?
Its value is 0.8822.

And the Z score [1]?
The Z score was 0.882.

What about the Activity [12] of the same compound?
Its Activity is “no”.

Which “Z Score” value [9] does the source give for `O=C(O)/C=C\C(=O)O.O=[N+]([O-])c1ccc2nc(N3CCNCC3)ccc2c1` [Quipazine, 6-nitro-, maleate] here?
Its value is 0.9782.

And the Z score [1]?
Its Z score is 0.978.

What about the Activity [11] of the same compound?
Its Activity is “no”.

How did the “Z Score” value turn out when `Cl.Nc1cc(Cl)c(N=C2NCCN2)c(Cl)c1` [p-Aminoclonidine hydrochloride] was run?
The value was −0.04776.

What about the Z score [1] of the same compound?
Its Z score is −0.048.

And the Activity [11]?
The Activity was “no”.

Which Z score (168 h, 3 µM) does the source give for `O=C1c2c(O)cc(O)cc2O[C@H](c2ccc(O)c(O)c2)[C@H]1O` (racemic) [(±)-Taxifolin] here?
Its Z score is 1.321.

What about the Activity [8] of the same compound?
Its Activity is “no”.

Which results are given for (±)-Atenolol?
Z score [7]: −0.658; Activity [8]: no

`N=C(N)NC(CCC(=O)O)C(=O)O` (stereo not drawn) [alpha-Guanidinoglutaric acid] was tested. Which “Z Score” value (168 h, 3 µM) did it give?
The value was −9.041.

What about the Z score (168 h, 3 µM) of the same compound?
Its Z score is −9.041.

And the Activity [10]?
Its Activity is “yes”.
